Assay results: patent publication US7012078B2, “2-aminopyridines containing fused ring substituents” (Pfizer Inc., priority 1997, dated 2006)
Counter-ions that a name gives are not always drawn.

With `CN1C2CCC1CC(Oc1ccc(-c3cccc(N)n3)c3ccccc13)C2` (centres unmarked) (as salt: hydrochloride) the melting point was 260 to 275 °C. Molecule `Nc1cccc(-c2ccc(OC3CN(Cc4ccccn4)C3)c3ccccc23)n1` (as salt: hydrochloride) [Example 74, 6-[4-(1-Pyridin-2-ylmethyl-azetidin-3-yloxy)-naphthalen-1-yl]-pyridin-2-ylamine] has a melting point of 97 to 120 °C. In the case of `Nc1cccc(-c2ccc(CCN3CC4C(N)C4C3)c3ccccc23)n1` (centres unmarked) (as salt: hydrochloride) [Example 2, 3-{2-[4-(6-Amino-pyridin-2-yl)-naphthalen-1-yl]-ethyl}-3-aza-bicyclo[3.1.0]hex-6-ylamine], the melting point is reported as 250 to 260 °C. Molecule `COc1cc(CNCCc2ccc(-c3cccc(N)n3)c3ccccc23)cc(OC)c1OC` (as salt: hydrochloride) [Example 8, 6-{4-[2-(3,4,5-Trimethoxy-benzylamino)-ethyl]-naphthalen-1-yl}-pyridin-2-ylamine] has a melting point of 75 to 95 °C. `Nc1cccc(-c2ccc(OCCNCc3ccc4c(c3)OCO4)c3ccccc23)n1` (as salt: hydrochloride) [Example 14, 6-(4-{2-[(Benzo[1,3]dioxol-5-ylmethyl)-amino]-ethoxy}-naphthalen-1-yl)-pyridin-2-ylamine] gave a melting point of 60 to 80 °C. For `Nc1cccc(-c2ccc(OCCN3CCN(CCc4ccccc4)CC3)c3c2CCC3)n1` (as salt: hydrochloride) [Example 61, 6-[7-[(4-Phenethylpiperazin-1-yl)-ethoxy]-indan-4-yl]-pyridin-2-ylamine], the melting point was 105 to 130 °C. Molecule `CC(C)CN1CCC(Oc2ccc(-c3cccc(N)n3)c3ccccc23)CC1` (as salt: hydrochloride) [Example 29, 6-[4-(1-Isobutyl-piperidin-4-yloxy)-naphthalen-1-yl]-pyridin-2-ylamine] has a melting point of 198 to 210 °C. In the case of `Nc1cccc(-c2ccc(CCNCc3ccc(Cl)c(Cl)c3)c3ccccc23)n1` (as salt: hydrochloride) [Example 11, 6-{4-[2-(3,4-Dichloro-benzylamino)-ethyl]-naphthalen-1-yl}-pyridin-2-ylamine], the melting point is reported as 145 to 170 °C. Work on `Nc1cccc(-c2ccc(OC3CN4CCC3CC4)c3ccccc23)n1` (centres unmarked) (as salt: hydrochloride) yielded a melting point of 220 to 228 °C. For `Nc1cccc(-c2ccc(OC3CCN(Cc4ccccc4)CC3)c3ccccc23)n1` (as salt: hydrochloride) [Example 24, 6-[4-(1-Benzyl-piperidin-4-yloxy)-naphthalen-1-yl]-pyridin-2-ylamine], the melting point was 265 to 285 °C (dec.). In the case of `CN1CC(Oc2ccc(-c3cccc(N)n3)c3ccccc23)C1` (as salt: hydrochloride) [Example 75, 6-[4-(N-methyl-azetidin-3-yloxy)-naphthalen-1-yl]-pyridin-2-ylamine], the melting point is reported as 240 to 255 °C. Work on `Nc1cccc(-c2ccc(OC3CCNC3)c3ccccc23)n1` (centres unmarked) (as salt: hydrochloride) [Example 28, 6-[4-(Pyrrolidin-3-yloxy)-naphthalen-1-yl]-pyridin-2-ylamine] yielded a melting point of 60 to 70 °C. In the case of `Nc1cccc(-c2ccc(CCN3CCN(CCc4ccccc4)CC3)c3ccccc23)n1` (as salt: hydrochloride) [Example 1, 6-{4-[2-(4-Phenethyl-piperazin-1-yl)-ethyl]-naphthalen-1-yl)-pyridin-2-ylamine], the melting point is reported as 80 to 105 °C. With `CC(C)CN1CC(Oc2ccc(-c3cccc(N)n3)c3ccccc23)C1` (as salt: hydrochloride) [Example 65, 6-[4-(1-Isobutyl-azetidin-3-yloxy)-naphthalen-1-yl]-pyridin-2-ylamine] the melting point was 133 to 148 °C. For `Nc1cccc(-c2ccc(OCCN3CC4C(N)C4C3)c3ccccc23)n1` (centres unmarked) (as salt: hydrochloride) [Example 16, 3-{2-[4-(6-Amino-pyridin-2-yl)-naphthalen-1-yloxy]-ethyl}-3-aza-bicyclo[3.1.0]hex-6-ylamine], the melting point was 140 to 155 °C. Work on `CC(C)N1CC(Oc2ccc(-c3cccc(N)n3)c3ccccc23)C1` (as salt: hydrochloride) [Example 76, 6-[4-(N-Isopropyl-azetidin-3-yloxy)-naphthalen-1-yl]-pyridin-2-ylamine] yielded a melting point of 120 to 135 °C. For `Nc1cccc(-c2ccc(OCC3CCCNC3)c3ccccc23)n1` (centres unmarked) (as salt: hydrochloride) [Example 64, 6-[4-(Piperidin-3-ylmethoxy)-naphthalen-1-yl]-pyridin-2-ylamine], the melting point was 164 to 185 °C. In the case of `Nc1cccc(-c2ccc(OCC3CNC3)c3ccccc23)n1` (as salt: hydrochloride) [Example 73, 6-[4-(Azetidin-3-ylmethoxy)-naphthalen-1-yl]-pyridin-2-ylamine], the melting point is reported as 88 to 110 °C. For `Nc1cccc(-c2ccc(OC3CN(Cc4ccco4)C3)c3ccccc23)n1` (as salt: hydrochloride) [Example 67, 6-[4-(1-Furan-2-ylmethyl-azetidin-3-yloxy)-naphthalen-1-yl]-pyridin-2-ylamine], the melting point was 75 to 90 °C. In the case of `CN(C)CCCOc1ccc(-c2cccc(N)n2)c2ccccc12` (as salt: hydrochloride) [Example 35, 6-[4-(3-Dimethylamino-propoxy)-naphthalen-1-yl]-pyridin-2-ylamine], the melting point is reported as 105 to 120 °C. `CC(C)CN1CCN(CCOc2ccc(-c3cccc(N)n3)c3c2CCC3)CC1` (as salt: hydrochloride) [Example 62, 6-[7-[(4-Isobutylpiperazin-1-yl)-ethoxy]-indan-4-yl]-pyridin-2-ylamine] gave a melting point of 170 to 190 °C. Work on `Nc1cccc(-c2ccc(CCNCc3ccc(F)c(F)c3)c3ccccc23)n1` (as salt: hydrochloride) [Example 7, 6-{4-[2-(3,4-Difluoro-benzylamino)-ethyl]-naphthalen-1-yl}-pyridin-2-ylamine] yielded a melting point of 70 to 80 °C. For `CN1CCC(Oc2ccc(-c3cccc(N)n3)c3ccccc23)CC1` (as salt: hydrochloride) [Example 33, 6-[4-(1-Methyl-piperidin-4-yloxy)-naphthalen-1-yl]-pyridin-2-ylamine], the melting point was 179 to 187 °C. Molecule `Nc1cccc(-c2ccc(OC3CCNCC3)c3ccccc23)n1` (as salt: hydrochloride) [Example 27, 6-[4-(Piperidin-4-yloxy)-naphthalen-1-yl]-Pyridin-2-ylamine] has a melting point of 65 to 75 °C. `CC(C)N(CCOc1ccc(-c2cccc(N)n2)c2c1CCCC2)C(C)C` (as salt: hydrochloride) [Example 40, 6-[4-(2-Diisopropylamino-ethoxy)-5,6,7,8-tetrahydro-naphthalen-1-yl]-pyridin-2-ylamine] gave a melting point of 50 to 60 °C. With `Nc1cccc(-c2ccc(CCN3CCC(C(c4ccccc4)c4ccccc4)CC3)c3ccccc23)n1` (as salt: hydrochloride) [Example 3, 6-{4-[2-(4-Benzhydryl-piperidin-1-yl)-ethyl]-naphthalen-1-yl}-pyridin-2-ylamine] the melting point was 225 to 235 °C. In the case of `Nc1cccc(-c2ccc(CCNCc3ccc4c(c3)OCO4)c3ccccc23)n1` (as salt: hydrochloride) [Example 6, 6-(4-{2-[(Benzo[1,3]dioxol-5-ylmethyl)-amino]-ethyl}-naphthalen-1-yl)-pyridin-2-ylamine], the melting point is reported as 80 to 110 °C. For `Nc1cccc(-c2ccc(OC3CCN(Cc4ccco4)CC3)c3ccccc23)n1` (as salt: hydrochloride) [Example 30, 6-[4-(1-Furan-2-ylmethyl-piperidin-4-yloxy)-naphthalen-1-yl]-pyridin-2-ylamine], the melting point was 178 to 195 °C. Work on `CN(CCOc1ccc(-c2cccc(N)n2)c2c1CCCC2)C(C)(C)C` (as salt: hydrochloride) [Example 39, 6-{4-[2-(tert-Butyl-methyl-amino)-ethoxy]-5,6,7,8-tetrahydro-naphthalen-1-yl}-pyridin-2-ylamine] yielded a melting point of 65 to 90 °C. Work on `Nc1cccc(-c2ccc(CCNCc3cccc(Cl)c3)c3ccccc23)n1` (as salt: hydrochloride) [Example 9, 6-{4-[2-(3-Chloro-benzylamino)-ethyl]-naphthalen-1-yl}-pyridin-2-ylamine] yielded a melting point of 60 to 75 °C. Work on `Nc1cccc(-c2ccc(OCCN3CCN(CCc4ccccc4)CC3)c3ccccc23)n1` (as salt: hydrochloride) [Example 17, 6-{4-[2-(4-Phenethyl-piperazin-1-yl)-ethoxy]-naphthalen-1-yl}-pyridin-2-ylamine] yielded a melting point of 45 to 80 °C. `Nc1cccc(-c2ccc(OC3CCN(Cc4ccccc4)C3)c3ccccc23)n1` (centres unmarked) (as salt: hydrochloride) [Example 25, 6-[4-(1-Benzyl-pyrrolidin-3-yloxy)-naphthalen-1-yl]-pyridin-2-ylamine] showed a melting point of 160 to 170 °C. Work on `CN(C)CCCCOc1ccc(-c2cccc(N)n2)c2ccccc12` (as salt: hydrochloride) [Example 26, 6-[4-(4-Dimethylamino-butoxy)-naphthalen-1-yl]-pyridin-2-ylamine] yielded a melting point of 78 to 90 °C. Molecule `COc1cc2c(cc1OC)CN(CCOc1ccc(-c3cccc(N)n3)c3ccccc13)CC2` (as salt: hydrochloride) [Example 15, 6-{4-[2-(6,7-Dimethoxy-3,4-dihydro-1H-isoquinolin-2-yl)-ethoxy]-naphthalen-1-yl}-pyridin-2-ylamine] has a melting point of 130 to 150 °C. `Nc1cccc(-c2ccc(CCNCc3ccco3)c3ccccc23)n1` (as salt: hydrochloride) [Example 10, 6-(4-{2-[(Furan-2-ylmethyl)-amino]-ethyl}-naphthalen-1-yl)-pyridin-2-ylamine] showed a melting point of 185 to 205 °C. `COc1cc2c(cc1OC)CN(CCc1ccc(-c3cccc(N)n3)c3ccccc13)CC2` [Example 4, 6-{4-[2-(6,7-Dimethoxy-3,4-dihydro-1H-isoquinolin-2-yl)-ethyl]-naphthalen-1-yl}-pyridin-2-ylamine] gave a melting point of 172 to 176 °C. Work on `Nc1cccc(-c2ccc(OCC3CCN3)c3ccccc23)n1` (centres unmarked) (as salt: salt) [Example 71, 6-[4-(Azetidin-2-ylmethoxy)-naphthalen-1-yl]-pyridin-2-ylamine] yielded a melting point of 135 to 150 °C. With `COc1ccc2[nH]c3c(c2c1)CCN(CCc1ccc(-c2cccc(N)n2)c2ccccc12)C3` the melting point was 132 to 138 °C.
